Test results from ChEMBL document CHEMBL5247667, “Design, synthesis and characterizations of prodrugs of brexanolone” (Bioorg Med Chem Lett, 2023).
Values belong to the compound of their own block, whether it stands above or below them.

Experiments:
[1] = Metabolic stability in human liver S9 fraction assessed as half life at 1 uM incubated for 60 min by LC-MS/MS method; type: ADME, subcellular
[2] = Metabolic stability in human plasma assessed as half life at 1 uM incubated for 60 min by LC-MS/MS method; type: ADME, cell-free
[3] = Metabolic stability in beagle dog plasma assessed as half life at 1 uM incubated for 60 min by LC-MS/MS method; type: ADME, cell-free, Canis lupus familiaris
[4] = Metabolic stability in Sprague-Dawley rat plasma assessed as half life at 1 uM incubated for 60 min by LC-MS/MS method; type: ADME, cell-free
[5] = Metabolic stability in beagle dog liver S9 fraction assessed as half life at 1 uM incubated for 60 min by LC-MS/MS method; type: ADME, subcellular, Canis lupus familiaris
[6] = Cmax in Sprague-Dawley rat assessed as BXN at 5 mg/kg, IM administered for 30 mins measured after 24 hrs post dose by LC-MS/MS analysis; type: ADME, organism-based; set-up: time 24.5 hrs, dose 5 mg/kg, route im; settings: in vivo, 24.5 h
[7] = Half life in Sprague-Dawley rat at 5 mg/kg, IM administered for 30 mins measured after 24 hrs post dose by LC-MS/MS analysis; type: ADME, organism-based; settings: in vivo, time 24.5 hrs
[8] = Cmax in Sprague-Dawley rat at 5 mg/kg, IM administered for 30 mins measured after 24 hrs post dose by LC-MS/MS analysis; type: ADME, organism-based; set-up: time 24.5 hrs, dose 5 mg/kg, route im; settings: in vivo
[9] = AUClast in Sprague-Dawley rat assessed as BXN at 5 mg/kg, IM administered for 30 mins measured after 24 hrs post dose by LC-MS/MS analysis; type: ADME, organism-based; set-up: time 24.5 hrs, dose 5 mg/kg, route im; settings: in vivo, 24.5 h
[10] = AUClast in Sprague-Dawley rat at 5 mg/kg, IM administered for 30 mins measured after 24 hrs post dose by LC-MS/MS analysis; type: ADME, organism-based; set-up: time 24.5 hrs, dose 5 mg/kg, route im; settings: in vivo
[11] = Metabolic stability in Sprague-Dawley rat liver S9 fraction assessed as half life at 1 uM incubated for 60 min by LC-MS/MS method; type: ADME, subcellular
[12] = Prodrug conversion in beagle dog assessed as ratio of AUC for compound to BXN at 5 mg/kg,IM and measured after 60 mins by LC-MS/MS analysis; type: ADME, organism-based, Canis lupus familiaris; settings: in vivo, 1 h
[13] = Cmax in beagle dog assessed as BXN at 1 mg/kg, IV administered for 30 mins measured after 24 hrs post dose by LC-MS/MS analysis; type: ADME, organism-based, Canis lupus familiaris; set-up: dose 1 mg/kg, time 24.5 hrs, route iv; settings: in vivo, 24.5 h
[14] = AUClast in Sprague-Dawley rat assessed as BXN at 1 mg/kg, IV administered for 30 mins measured after 24 hrs post dose by LC-MS/MS analysis; type: ADME, organism-based; set-up: dose 1 mg/kg, time 24.5 hrs, route iv; settings: in vivo, 24.5 h
[15] = Cmax in beagle dog at 1 mg/kg, IV administered for 30 mins measured after 24 hrs post dose by LC-MS/MS analysis; type: ADME, organism-based, Canis lupus familiaris; set-up: time 24.5 hrs, dose 1 mg/kg, route iv; settings: in vivo
[16] = AUClast in beagle dog at 1 mg/kg, IV administered for 30 mins measured after 24 hrs post dose by LC-MS/MS analysis; type: ADME, organism-based, Canis lupus familiaris; set-up: time 24.5 hrs, dose 1 mg/kg, route iv; settings: in vivo
[17] = Cmax in beagle dog at 5 mg/kg, IM administered for 30 mins measured after 24 hrs post dose by LC-MS/MS analysis; type: ADME, organism-based, Canis lupus familiaris; set-up: time 24.5 hrs, dose 5 mg/kg, route im; settings: in vivo
[18] = AUClast in beagle dog assessed as BXN at 1 mg/kg, IV administered for 30 mins measured after 24 hrs post dose by LC-MS/MS analysis; type: ADME, organism-based, Canis lupus familiaris; set-up: dose 1 mg/kg, time 24.5 hrs, route iv; settings: in vivo, 24.5 h
[19] = Prodrug conversion in Sprague-Dawley rat assessed as ratio of AUC for compound to BXN at 5 mg/kg,IM and measured after 60 mins by LC-MS/MS analysis; type: ADME, organism-based; settings: in vivo, 1 h
[20] = Prodrug conversion in beagle dog assessed as ratio of AUC for compound to BXN at 1 mg/kg,IV and measured after 60 mins by LC-MS/MS analysis; type: ADME, organism-based, Canis lupus familiaris; settings: in vivo, 1 h
[21] = AUClast in beagle dog assessed as BXN at 5 mg/kg, IM administered for 30 mins measured after 24 hrs post dose by LC-MS/MS analysis; type: ADME, organism-based, Canis lupus familiaris; set-up: time 24.5 hrs, dose 5 mg/kg, route im; settings: in vivo, 24.5 h
[22] = AUClast in Sprague-Dawley rat at 1 mg/kg, IV administered for 30 mins measured after 24 hrs post dose by LC-MS/MS analysis; type: ADME, organism-based; set-up: dose 1 mg/kg, time 24.5 hrs, route iv; settings: in vivo
[23] = Cmax in Sprague-Dawley rat at 1 mg/kg, IV administered for 30 mins measured after 24 hrs post dose by LC-MS/MS analysis; type: ADME, organism-based; set-up: time 24.5 hrs, dose 1 mg/kg, route iv; settings: in vivo
[24] = Cmax in beagle dog assessed as BXN at 5 mg/kg, IM administered for 30 mins measured after 24 hrs post dose by LC-MS/MS analysis; type: ADME, organism-based, Canis lupus familiaris; set-up: time 24.5 hrs, dose 5 mg/kg, route im; settings: in vivo, 24.5 h
[25] = Half life in Sprague-Dawley rat assessed as BXN at 1 mg/kg, IV administered for 30 mins measured after 24 hrs post dose by LC-MS/MS analysis; type: ADME, organism-based; settings: in vivo, 24.5 h
[26] = Prodrug conversion in Sprague-Dawley rat assessed as ratio of AUC for compound to BXN at 1 mg/kg,IV and measured after 60 mins by LC-MS/MS analysis; type: ADME, organism-based; settings: in vivo, 1 h
[27] = Cmax in Sprague-Dawley rat assessed as BXN at 1 mg/kg, IV administered for 30 mins measured after 24 hrs post dose by LC-MS/MS analysis; type: ADME, organism-based; set-up: time 24.5 hrs, dose 1 mg/kg, route iv; settings: in vivo, 24.5 h
[28] = AUClast in beagle dog at 5 mg/kg, IM administered for 30 mins measured after 24 hrs post dose by LC-MS/MS analysis; type: ADME, organism-based, Canis lupus familiaris; set-up: dose 5 mg/kg, time 24.5 hrs, route im; settings: in vivo
[29] = Half life in beagle dog assessed as BXN at 5 mg/kg, IM administered for 30 mins measured after 24 hrs post dose by LC-MS/MS analysis; type: ADME, organism-based, Canis lupus familiaris; settings: in vivo, 24.5 h

SMILES: CC(=O)[C@H]1CC[C@H]2[C@@H]3CC[C@H]4C[C@H](OC(=O)OCCN(C)C(=O)C(C)C)CC[C@]4(C)[C@H]3CC[C@]12C
half-life at 1 µM [1]: 0.0717 h
half-life at 1 µM [2]: 4.82 h

SMILES: CC(=O)[C@H]1CC[C@H]2[C@@H]3CC[C@H]4C[C@H](OC(=O)N(C)CCOC(=O)C(C)C)CC[C@]4(C)[C@H]3CC[C@]12C
half-life at 1 µM [3]: 2.3 h
half-life at 1 µM [1]: 0.015 h
half-life at 1 µM [4]: 0.0267 h
half-life at 1 µM [5]: 1.8 min
half-life at 1 µM [2]: 2.93 h

half-life at 1 µM [1]: 0.572 h
half-life at 1 µM [2]: > 5 h
SMILES: CCCCCCCC(=O)O[C@@H]1CC[C@@]2(C)[C@@H](CC[C@@H]3[C@@H]2CC[C@]2(C)[C@@H](C(C)=O)CC[C@@H]32)C1

SMILES: CCCCCC(=O)O[C@@H]1CC[C@@]2(C)[C@@H](CC[C@@H]3[C@@H]2CC[C@]2(C)[C@@H](C(C)=O)CC[C@@H]32)C1
Cmax [6]: 12.9 ng/mL
half-life at 1 µM [1]: 0.382 h
half-life [7]: 7.94 h
half-life at 1 µM [4]: > 4.82 h
Cmax [8]: 130 ng/mL
AUClast [9]: 67.9 ng·h/mL
AUC(0-t) at 24.5 h [10]: 716 ng·h/mL
half-life at 1 µM [2]: > 5 h
half-life at 1 µM [11]: 4.7 min
Ratio AUC [12]: 0.09

SMILES: CC(=O)[C@H]1CC[C@H]2[C@@H]3CC[C@H]4C[C@H](OC(=O)OCCOC(=O)C(C)C)CC[C@]4(C)[C@H]3CC[C@]12C
Cmax [13]: 41.9 ng/mL
AUClast [14]: 256 ng·h/mL
half-life at 1 µM [3]: 1.53 h
Cmax [15]: 590 ng/mL
Cmax [6]: 81.2 ng/mL
AUC(0-t) at 24.5 h [16]: 238 ng·h/mL
half-life at 1 µM [1]: 0.0417 h
Cmax [17]: 31.4 ng/mL
AUClast [18]: 24 ng·h/mL
Ratio AUC [19]: 28
half-life [7]: 2.39 h
Ratio AUC [20]: 0.1
AUClast [21]: 119 ng·h/mL
half-life at 1 µM [4]: < 0.05 h
half-life at 1 µM [5]: 2.5 min
AUC(0-t) at 24.5 h [22]: 9.03 ng·h/mL
AUClast [9]: 390 ng·h/mL
Cmax [23]: 45.6 ng/mL
Cmax [24]: 11.3 ng/mL
t1/2 [25]: 13.5 h
Ratio AUC [26]: > 390
half-life at 1 µM [2]: 1.5 h
Cmax [27]: 119 ng/mL
AUC(0-t) at 24.5 h [28]: 36.5 ng·h/mL
t1/2 [29]: 53.3 h
Ratio AUC [12]: 3.3

SMILES: CC(=O)OCCCCC(=O)O[C@@H]1CC[C@@]2(C)[C@@H](CC[C@@H]3[C@@H]2CC[C@]2(C)[C@@H](C(C)=O)CC[C@@H]32)C1
half-life at 1 µM [3]: 1.45 h
half-life at 1 µM [1]: 0.0133 h
half-life at 1 µM [5]: 1 min
half-life at 1 µM [2]: 1.78 h

SMILES: COC(=O)N(C)CCOC(=O)O[C@@H]1CC[C@@]2(C)[C@@H](CC[C@@H]3[C@@H]2CC[C@]2(C)[C@@H](C(C)=O)CC[C@@H]32)C1
half-life at 1 µM [1]: 0.0117 h
half-life at 1 µM [2]: 4.82 h
